What was measured:
human FAAH = biological target: T1, human FAAH (Homo sapiens, UniProt O00519); assay: FAAH assay, human FAAH enzyme inactivation (kinact/Ki); type: biochemical; details: pH 7.4, in vitro, oleamide 50 μM, 30° C., read-out: hFAAH kinact/Ki
T1 construct: made in house; host or cells: E. coli
T1 sequence (O00519 1-579): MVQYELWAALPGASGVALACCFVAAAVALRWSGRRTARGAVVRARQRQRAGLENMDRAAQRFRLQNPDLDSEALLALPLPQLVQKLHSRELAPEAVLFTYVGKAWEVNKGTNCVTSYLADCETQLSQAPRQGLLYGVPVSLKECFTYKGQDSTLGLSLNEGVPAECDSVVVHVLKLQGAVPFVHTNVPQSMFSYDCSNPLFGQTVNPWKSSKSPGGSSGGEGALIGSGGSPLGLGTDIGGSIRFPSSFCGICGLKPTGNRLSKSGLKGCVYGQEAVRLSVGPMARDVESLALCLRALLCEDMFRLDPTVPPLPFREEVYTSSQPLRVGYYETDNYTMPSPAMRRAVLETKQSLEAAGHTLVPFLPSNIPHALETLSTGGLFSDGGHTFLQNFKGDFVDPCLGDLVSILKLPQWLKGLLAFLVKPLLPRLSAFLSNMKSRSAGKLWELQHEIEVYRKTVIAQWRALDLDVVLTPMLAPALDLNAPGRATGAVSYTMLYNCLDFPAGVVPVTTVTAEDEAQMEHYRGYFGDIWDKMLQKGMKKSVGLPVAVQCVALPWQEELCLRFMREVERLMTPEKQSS
Procedure, shortened: (§1)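 Oleamide hydrolysis by 1-4 nM purified E. coli-expressed FAAH (substrate 50 μM = Km) coupled to GDH/NADH, pH 7.4 phosphate, 7.5% DMSO and EtOH, 30° C; A340 followed 90 min. kobs from mono-exponential fits; kinact/Ki from kobs-versus-concentration slope, multiplied by two.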

Male Sprague-Dawley Rats = assay: In vivo Complete Freund's Adjuvant (CFA) efficacy assay, inhibition of allodynia; set-up: species or system rat; key: (+) indicates the test compound was determined to be efficacious at 3 mpk, oral dosing; (−) indicates the test compound was determined to not be efficacious at 3 mpk, oral dosing; details: 3 mpk, oral dosing; PWT four hours postdose; p < 0.05 vs vehicle group
Procedure, shortened: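 Adult male Sprague-Dawley rats weighing 200 g-250 g received an intra-plantar injection of 150 uL Complete Freund's Adjuvant into the left hindpaw to induce inflammation. On day 4 after injection, baseline paw withdrawal threshold was measured with Von Frey hairs using the Dixon Up and Down method. Threshold was measured again at four hours postdose. Treatment groups were compared by ANOVA with Dunnett's two-tailed test.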

rat FAAH = biological target: T2, rat FAAH (Rattus norvegicus, UniProt P97612); assay: FAAH assay, rat FAAH enzyme inactivation (kinact/Ki); type: biochemical; details: oleamide 50 μM, 30° C.; for kinact/KI: pH 7.4, in vitro, read-out: rFAAH kinact/Ki
T2 construct: made in house; host or cells: E. coli
T2 sequence (P97612 1-579): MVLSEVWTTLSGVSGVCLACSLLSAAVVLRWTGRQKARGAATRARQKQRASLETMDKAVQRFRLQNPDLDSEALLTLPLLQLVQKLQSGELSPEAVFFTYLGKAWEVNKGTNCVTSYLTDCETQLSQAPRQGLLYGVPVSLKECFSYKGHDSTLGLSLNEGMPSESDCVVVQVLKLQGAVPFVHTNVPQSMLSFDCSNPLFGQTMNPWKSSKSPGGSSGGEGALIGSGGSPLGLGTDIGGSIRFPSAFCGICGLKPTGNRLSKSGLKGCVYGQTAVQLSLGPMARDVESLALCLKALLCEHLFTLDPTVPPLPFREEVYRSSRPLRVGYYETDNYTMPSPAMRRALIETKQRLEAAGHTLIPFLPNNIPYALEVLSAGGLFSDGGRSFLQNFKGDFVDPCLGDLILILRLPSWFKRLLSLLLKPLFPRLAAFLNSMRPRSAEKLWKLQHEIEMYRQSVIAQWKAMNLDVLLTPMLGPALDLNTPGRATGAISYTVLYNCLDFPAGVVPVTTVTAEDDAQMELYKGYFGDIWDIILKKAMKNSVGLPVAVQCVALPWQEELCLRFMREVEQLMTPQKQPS
Procedure, shortened: as §1

Row | SMILES | kinact/KI (human FAAH) [M⁻¹ s⁻¹] | CFA Efficacy (Male Sprague-Dawley Rats) | kinact/KI (rat FAAH) [M⁻¹ s⁻¹] | rFAAH kinact/Ki (rat FAAH; in vitro, pH 7.4) [M⁻¹ s⁻¹]
1 | Cn1nnnc1NC(=O)N1CCC2(CC1)C[C@H](c1ccc(OCc3ccc(C(F)(F)F)cn3)cc1)CO2 [Example 95, (3R)—N-(1-methyl-1H-tetrazol-5-yl)-3-(4-{[5-(trifluoromethyl)pyridin-2-yl]methoxy}phenyl)-1-oxa-8-azaspiro[4.5]decane-8-carboxamide] | 21500 | (+) | 30300 | 
2 | Cn1nnnc1NC(=O)N1CCC2(CC1)C[C@H](c1cccc(-c3ccc(C(F)(F)F)cn3)c1)CO2 [Example 99, (3R)—N-(1-methyl-1H-tetrazol-5-yl)-3-{3-[5-(trifluoromethyl)pyridin-2-yl]phenyl}-1-oxa-8-azaspiro[4.5]decane-8-carboxamide] | 9970 | (+) | 2690 | 
3 | Cn1nnnc1NC(=O)N1CCC2(CC1)C[C@@H](c1ccc(OCc3ccc(F)c(F)c3)cc1)CO2 [Example 89, (3S)-3-{4-[(3,4-difluorobenzyl)oxy]phenyl}-N-(1-methyl-1H-tetrazol-5-yl)-1-oxa-8-azaspiro[4.5]decane-8-carboxamide] | 29800 | (+) | 9640 | 
4 | O=C(Nc1cccnc1)N1CCC2(CC1)C[C@H](c1cccc(Oc3ccc(Br)cn3)c1)CO2 [Example 7, (3R)-3-{3-[(5-bromopyridin-2-yl)oxy]phenyl}-N-pyridin-3-yl-1-oxa-8-azaspiro[4.5]decane-8-carboxamide] | 2890 | (+) | 526 | 
5 | Cc1noc(NC(=O)N2CCC3(CC2)CC(c2cccc(Cl)c2)CO3)c1C (single isomer, unassigned) [Example 35, 3-(3-chlorophenol)-N-(3,4-dimethylisoxazol-5-yl)-1-oxa-8-azaspiro[4.5]decane-8-carboxamide] | 2390 | (+) |  | 1560
6 | Cc1noc(NC(=O)N2CCC3(CC2)C[C@@H](c2cccc(-c4ccc(Cl)cc4)c2)CO3)c1C [Example 62, (3S)-3-(4′-chlorobiphenyl-3-yl)-N-(3,4-dimethylisoxazol-5-yl)-1-oxa-8-azaspiro[4.5]decane-8-carboxamide] | 2920 | (+) | 2260 | 
7 | Cc1noc(NC(=O)N2CCC3(CC2)C[C@H](c2cccc(-c4ccc(Cl)cc4)c2)CO3)c1C [Example 61, (3R)-3-(4′-chlorobiphenyl-3-yl)-N-(3,4-dimethylisoxazol-5-yl)-1-oxa-8-azaspiro[4.5]decane-8-carboxamide] | 1220 | (+) | 433 | 
